US20070179060A1, “6-(Poly-substituted aryl)-4-aminopicolinates and their use as herbicides” (priority 2006, published 2007)
Blank lines part the entries; values can stand above or below the compound they belong to.

Assays:
[1] = test system: lambsquarter (Chenopodium album); assay: Postemergence herbicidal activity; format: in vivo; settings: post-emergent, 140 g ai/ha, after 14 days; for pest or weed control at 140 g/ha: Chenopodium album, post-emergence, 336 h, read-out: % Control CHEAL
In short: (§1)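 Plants grown 7-21 days in greenhouse (about 15 h photoperiod, 23-29° C day, 22-28° C night) to first or second true leaf stage. Compounds in acetone/water/isopropanol/DMSO carrier with crop oil concentrate and Triton X-155 sprayed overhead at 187 L/ha; controls received solvent blank. Plants sub-irrigated afterwards; dose responses analysed by probit analysis.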

[2] = test system: redroot pigweed (Amaranthus retroflexus); assay: Postemergence herbicidal activity; format: in vivo; settings: post-emergent, 140 g ai/ha, after 14 days; for pest or weed control at 140 g/ha: Amaranthus retroflexus, post-emergence, 336 h, read-out: % Control AMARE
In short: as §1

[3] = test system: velvetleaf (Abutilon theophrasti); assay: Postemergence herbicidal activity; format: in vivo; settings: post-emergent, 140 g ai/ha, after 14 days; for pest or weed control at 140 g/ha: Abutilon theophrasti, post-emergence, 336 h, read-out: % Control ABUTH
In short: as §1

Galium aparine = assay: Postemergence herbicidal activity in cereal crops; format: in vivo; settings: Galium aparine, post-emergence, 480 h, post-emergent, after 20-22 days, read-out: % Control GALAP; for pest or weed control at 17.5 g/ha: 17.5 g ai/ha; for pest or weed control at 35 g/ha: 35 g ai/ha
In short: (§2)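 Plants are raised in a greenhouse for 7-36 days and used at the second to third true leaf stage. Compounds in a mixed organic–aqueous carrier with crop oil and surfactant are sprayed postemergence at 187 L/ha. Treated plants return to the greenhouse with sub-irrigation, alongside blank-sprayed controls.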

barley (Hordeum vulare) = assay: Postemergence herbicidal activity in cereal crops; format: in vivo; settings: Hordeum, post-emergence, 480 h, crop, post-emergent, after 20-22 days, read-out: % Control HORVS; for pest or weed control at 17.5 g/ha: 17.5 g ai/ha; for pest or weed control at 35 g/ha: 35 g ai/ha
In short: as §2

[4] = test system: wheat (Triticum aestivum); assay: Postemergence herbicidal activity in cereal crops; format: in vivo; settings: Triticum aestivum, post-emergence, 480 h, crop, post-emergent, after 20-22 days, read-out: % Control TRZAS; for plant injury at 17.5 g/ha: 17.5 g ai/ha; for plant injury at 35 g/ha: 35 g ai/ha
In short: as §2

Compound: COC(=O)c1nc(-c2ccc(Cl)c(OC)c2F)cc(N)c1Cl [Compound 42, 4-Amino-3-chloro-6-(4-chloro-2-fluoro-3-methoxyphenyl)pyridine-2-carboxylic acid methyl ester]
pest or weed control at 140 g/ha [1]: 100%
pest or weed control at 140 g/ha [2]: 100%
pest or weed control at 140 g/ha [3]: 100%
pest or weed control at 17.5 g/ha (Galium aparine): 99%
pest or weed control at 17.5 g/ha (barley (Hordeum vulare)): 5%
plant injury at 17.5 g/ha [4]: 5%

Compound: COC(=O)c1nc(-c2ccc(F)c(OC)c2F)cc(N)c1Cl [Compound 70, 4-Amino-3-chloro-6-(2,4-difluoro-3-methoxyphenyl)pyridine-2-carboxylic acid, methyl ester]
pest or weed control at 140 g/ha [1]: 100%
pest or weed control at 140 g/ha [2]: 100%
pest or weed control at 140 g/ha [3]: 100%
pest or weed control at 17.5 g/ha (Galium aparine): 99%
pest or weed control at 17.5 g/ha (barley (Hordeum vulare)): 0%
plant injury at 17.5 g/ha [4]: 0%

Compound: COC(=O)c1nc(-c2c(F)cc(Br)c(OC)c2F)cc(N)c1Cl [Compound 77, 4-Amino-6-(4-bromo-2,6-difluoro-3-methoxyphenyl)-3-chloropyridine-2-carboxylic acid, methyl ester]
pest or weed control at 140 g/ha [1]: 100%
pest or weed control at 140 g/ha [2]: 100%
pest or weed control at 140 g/ha [3]: 100%
pest or weed control at 17.5 g/ha (Galium aparine): 99%
pest or weed control at 17.5 g/ha (barley (Hordeum vulare)): 0%
plant injury at 17.5 g/ha [4]: 0%

Compound: COC(=O)c1nc(-c2c(F)cc(Cl)c(OC)c2F)cc(N)c1Cl [Compound 58, 4-Amino-3-chloro-6-(4-chloro-2,6-difluoro-3-methoxyphenyl)pyridine-2-carboxylic acid, methyl ester]
pest or weed control at 140 g/ha [1]: 100%
pest or weed control at 140 g/ha [2]: 100%
pest or weed control at 140 g/ha [3]: 100%
pest or weed control at 17.5 g/ha (Galium aparine): 100%
pest or weed control at 17.5 g/ha (barley (Hordeum vulare)): 0%
plant injury at 17.5 g/ha [4]: 0%

melting point: 179 to 180 °C (dec.)
Compound: COc1c(Cl)ccc(-c2cc(N)c(Cl)c(C(=O)O)n2)c1Cl [Compound 103, 4-Amino-3-chloro-6-(2,4-dichloro-3-methoxyphenyl)pyridine-2-carboxylic acid]
% Control CHEAL [1]: 100%
% Control AMARE [2]: 100%
% Control ABUTH [3]: 95%
pest or weed control at 35 g/ha (Galium aparine): 60%
pest or weed control at 35 g/ha (barley (Hordeum vulare)): 0%
plant injury at 35 g/ha [4]: 0%

melting point: 168 to 170 °C
Compound: COC(=O)c1nc(-c2ccc(Cl)c(OC)c2Cl)cc(N)c1Cl [Compound 44, 4-Amino-3-chloro-6-(2,4-dichloro-3-methoxyphenyl)pyridine-2-carboxylic acid methyl ester]
pest or weed control at 140 g/ha [1]: 100%
pest or weed control at 140 g/ha [2]: 100%
pest or weed control at 140 g/ha [3]: 100%
pest or weed control at 35 g/ha (Galium aparine): 65%
pest or weed control at 35 g/ha (barley (Hordeum vulare)): 5%
plant injury at 35 g/ha [4]: 10%

melting point: 164 to 165 °C
Compound: COC(=O)c1nc(-c2ccc(Br)c(OC)c2F)cc(N)c1Cl [Compound 27, 4-amino-6-(4-bromo-2-fluoro-3-methoxyphenyl)-3-chloro-pyridine-2-carboxylic acid methyl ester]
pest or weed control at 140 g/ha [1]: 100%
pest or weed control at 140 g/ha [2]: 90%
pest or weed control at 140 g/ha [3]: 100%
pest or weed control at 17.5 g/ha (Galium aparine): 99%
pest or weed control at 17.5 g/ha (barley (Hordeum vulare)): 5%
plant injury at 17.5 g/ha [4]: 5%

Compound: COc1c(Cl)ccc(-c2cc(N)c(Cl)c(C(=O)O)n2)c1F [Compound 100, 4-Amino-3-chloro-6-(4-chloro-2-fluoro-3-methoxyphenyl)pyridine-2-carboxylic acid]
pest or weed control at 140 g/ha [1]: 100%
pest or weed control at 140 g/ha [2]: 100%
pest or weed control at 140 g/ha [3]: 100%
pest or weed control at 17.5 g/ha (Galium aparine): 90%
pest or weed control at 17.5 g/ha (barley (Hordeum vulare)): 5%
plant injury at 17.5 g/ha [4]: 10%
